How the values were obtained:
[1] = target: T1, SMARCA2-HiBiT HeLa cells (protein which is expressed from the SMARCA2 gene) (Homo sapiens, UniProt P51531); assay: SMARCA2 degradation assay (HiBiT-fusion HeLa cell line, 24 h, luminescence); format: cell-based
T1 construct: protein which is expressed from the SMARCA2 and SMARCA4 genes; host or cells: HeLa (SMARCA2-HiBiT engineered line)
How it was run: (§1)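 SMARCA2- or SMARCA4-HiBiT HeLa cells seeded overnight at 37° C, then given compound as a 10-point dilution (typically 10 μM to 300 pM) for 24 h at 37° C. Protein level read by HiBiT lytic detection luminescence; DC50 from dose-response curves; degradation also scored at 1 μM.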

[2] = target: T2, SMARCA4-HiBiT HeLa cells (protein which is expressed from the SMARCA4 gene) (Homo sapiens, UniProt P51532); assay: SMARCA4 degradation assay (HiBiT-fusion HeLa cell line, 24 h, luminescence); format: cell-based
T2 construct: protein which is expressed from the SMARCA2 and SMARCA4 genes; host or cells: HeLa (SMARCA4-HiBiT engineered line)
How it was run: as §1

T2 sequence (P51532 whole entry, the tested form may be a part): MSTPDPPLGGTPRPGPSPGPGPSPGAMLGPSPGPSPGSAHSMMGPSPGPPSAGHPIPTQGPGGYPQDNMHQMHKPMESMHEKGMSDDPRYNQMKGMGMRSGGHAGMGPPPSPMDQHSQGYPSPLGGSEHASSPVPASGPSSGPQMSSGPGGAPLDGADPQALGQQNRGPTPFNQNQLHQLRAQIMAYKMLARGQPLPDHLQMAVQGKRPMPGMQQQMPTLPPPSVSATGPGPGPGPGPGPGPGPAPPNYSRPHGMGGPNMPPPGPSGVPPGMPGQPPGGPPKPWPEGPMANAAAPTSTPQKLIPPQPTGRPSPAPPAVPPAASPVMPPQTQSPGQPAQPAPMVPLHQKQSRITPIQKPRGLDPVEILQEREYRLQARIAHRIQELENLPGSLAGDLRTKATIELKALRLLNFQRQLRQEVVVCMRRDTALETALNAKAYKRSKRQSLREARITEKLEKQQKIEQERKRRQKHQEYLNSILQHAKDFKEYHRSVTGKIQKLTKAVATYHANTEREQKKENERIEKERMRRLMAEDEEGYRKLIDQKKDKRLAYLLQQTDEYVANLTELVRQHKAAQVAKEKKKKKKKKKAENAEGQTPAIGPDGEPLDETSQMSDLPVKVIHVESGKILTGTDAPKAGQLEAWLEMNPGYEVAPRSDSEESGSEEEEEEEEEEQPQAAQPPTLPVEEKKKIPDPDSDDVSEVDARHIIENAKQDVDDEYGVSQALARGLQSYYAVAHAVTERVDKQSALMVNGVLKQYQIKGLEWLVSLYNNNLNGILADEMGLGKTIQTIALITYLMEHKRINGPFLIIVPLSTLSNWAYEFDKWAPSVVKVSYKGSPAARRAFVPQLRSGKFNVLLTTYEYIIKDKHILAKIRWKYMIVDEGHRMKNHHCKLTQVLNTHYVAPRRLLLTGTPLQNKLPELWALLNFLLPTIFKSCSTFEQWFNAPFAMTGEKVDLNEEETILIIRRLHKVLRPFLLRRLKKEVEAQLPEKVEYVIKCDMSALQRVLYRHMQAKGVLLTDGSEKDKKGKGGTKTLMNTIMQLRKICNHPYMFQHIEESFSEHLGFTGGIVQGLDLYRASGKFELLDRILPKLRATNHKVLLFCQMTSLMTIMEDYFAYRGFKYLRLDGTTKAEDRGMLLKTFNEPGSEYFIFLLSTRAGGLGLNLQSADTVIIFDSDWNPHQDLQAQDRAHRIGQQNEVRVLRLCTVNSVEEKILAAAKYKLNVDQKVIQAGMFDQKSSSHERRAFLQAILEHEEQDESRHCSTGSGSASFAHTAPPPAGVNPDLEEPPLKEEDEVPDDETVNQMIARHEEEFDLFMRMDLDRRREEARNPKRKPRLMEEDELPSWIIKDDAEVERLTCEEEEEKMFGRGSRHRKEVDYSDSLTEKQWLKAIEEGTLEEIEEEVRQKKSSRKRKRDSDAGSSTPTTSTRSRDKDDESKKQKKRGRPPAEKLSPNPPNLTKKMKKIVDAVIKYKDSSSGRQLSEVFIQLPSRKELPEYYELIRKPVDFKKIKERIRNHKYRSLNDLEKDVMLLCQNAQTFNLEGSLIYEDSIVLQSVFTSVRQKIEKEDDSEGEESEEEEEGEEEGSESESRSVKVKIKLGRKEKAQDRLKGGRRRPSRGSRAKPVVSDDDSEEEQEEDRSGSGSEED
T1 sequence (P51531 whole entry, the tested form may be a part): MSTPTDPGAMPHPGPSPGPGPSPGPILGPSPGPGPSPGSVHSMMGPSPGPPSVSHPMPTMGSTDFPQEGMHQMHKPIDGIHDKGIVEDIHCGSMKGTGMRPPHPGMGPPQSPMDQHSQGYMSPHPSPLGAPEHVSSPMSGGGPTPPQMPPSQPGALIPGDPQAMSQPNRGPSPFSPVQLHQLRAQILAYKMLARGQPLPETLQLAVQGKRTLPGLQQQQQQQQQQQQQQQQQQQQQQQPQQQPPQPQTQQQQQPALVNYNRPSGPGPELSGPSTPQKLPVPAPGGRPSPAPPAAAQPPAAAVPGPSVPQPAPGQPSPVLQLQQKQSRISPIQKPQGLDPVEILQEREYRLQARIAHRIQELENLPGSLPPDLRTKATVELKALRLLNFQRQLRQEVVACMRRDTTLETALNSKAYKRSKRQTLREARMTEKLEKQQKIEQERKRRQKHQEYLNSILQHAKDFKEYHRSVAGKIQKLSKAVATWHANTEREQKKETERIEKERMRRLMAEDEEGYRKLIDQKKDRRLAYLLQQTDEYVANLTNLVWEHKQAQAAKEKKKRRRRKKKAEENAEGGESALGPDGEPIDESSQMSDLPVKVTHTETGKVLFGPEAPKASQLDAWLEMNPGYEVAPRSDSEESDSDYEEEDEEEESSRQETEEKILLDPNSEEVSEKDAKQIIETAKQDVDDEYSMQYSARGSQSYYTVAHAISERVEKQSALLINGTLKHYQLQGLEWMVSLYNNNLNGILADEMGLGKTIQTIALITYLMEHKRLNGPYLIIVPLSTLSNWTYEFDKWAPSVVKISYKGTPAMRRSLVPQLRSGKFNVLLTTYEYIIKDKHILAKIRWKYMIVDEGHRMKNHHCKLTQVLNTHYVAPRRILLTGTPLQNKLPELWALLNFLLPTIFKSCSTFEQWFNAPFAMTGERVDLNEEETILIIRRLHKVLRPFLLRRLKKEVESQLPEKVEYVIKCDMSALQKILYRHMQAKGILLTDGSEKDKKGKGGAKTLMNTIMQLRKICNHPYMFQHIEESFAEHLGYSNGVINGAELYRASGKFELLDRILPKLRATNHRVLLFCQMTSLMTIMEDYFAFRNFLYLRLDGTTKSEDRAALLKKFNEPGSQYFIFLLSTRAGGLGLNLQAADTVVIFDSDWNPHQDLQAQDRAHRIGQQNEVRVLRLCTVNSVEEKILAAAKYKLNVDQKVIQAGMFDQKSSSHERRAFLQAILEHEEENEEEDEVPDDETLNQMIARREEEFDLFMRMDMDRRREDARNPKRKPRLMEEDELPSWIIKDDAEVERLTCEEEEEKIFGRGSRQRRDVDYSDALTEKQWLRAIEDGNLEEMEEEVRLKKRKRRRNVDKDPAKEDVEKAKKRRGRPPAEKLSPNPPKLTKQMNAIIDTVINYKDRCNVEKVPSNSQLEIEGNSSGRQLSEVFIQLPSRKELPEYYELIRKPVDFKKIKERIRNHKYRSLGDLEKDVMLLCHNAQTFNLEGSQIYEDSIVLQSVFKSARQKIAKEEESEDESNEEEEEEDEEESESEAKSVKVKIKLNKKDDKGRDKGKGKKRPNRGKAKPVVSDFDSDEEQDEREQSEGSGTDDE

Row | Compound | DC50 [1] | SMARCA2 % Degradation @ 1 μM ([1]; @ 1 μM) | DC50 [2] | inhibition at 1 µM ([2]; @ 1 μM) | SMARCA2 % Degradation @ 1 μM ([1]; 1 μM) | inhibition at 1 µM ([2]; 1 μM)
1 | C[C@H]1CN(c2ccnc(C#CCNC(=O)c3cc4ncccn4n3)n2)C[C@H](C)N1c1cc(-c2ccccc2O)nnc1N [Compound P-16, N-(3-(4-((3S,5S)-4-(3-amino-6-(2-hydroxyphenyl)pyridazin-4-y1)-3,5-dimethylpiperazin-1-yl)pyrimidin-2-yl)prop-2-yn-1-yl)pyrazolo[1,5-a]pyrimidine-2-carboxamide] | 500 to 5000 nM | + (+=<30%) | 500 to 5000 nM | < 30% |  | 
2 | Cc1cc(C(=O)NCC#Cc2nccc(N3CCN(c4cc(-c5ccccc5O)nnc4N)CC3)n2)no1 [Compound P-1, N-[3-(4-{4-[3-amino-6-(2-hydroxyphenyl)pyridazin-4-yl]piperazin-1-yl}pyrimidin-2-yl)prop-2-yn-1-yl]-5-methyl-1,2-oxazole-3-carboxamide] | 50 to 500 nM | ++ (++=30-70%) | 50 to 500 nM | 30 to 70% |  | 
3 | COC/C=C/c1nccc(N2CCCN(c3cc(-c4ccccc4O)nnc3N)CC2)n1 [Compound P-159, o-(6-amino-5-{4-[2-(3-methoxy-1-propenyl)-4-pyrimidinyl]-1,4-diazepan-1-yl}-3-pyridazinyl)phenol] | 50 to 500 nM | +++ (+++=>70%) | 50 to 500 nM | 30 to 70% |  | 
4 | Cc1cc(C)n(CC#Cc2nccc(N3CCN(c4cc(-c5ccccc5O)nnc4N)CC[C@H]3C)n2)n1 [Compound P-177, o-{5-[(R)-4-{2-[3-(3,5-dimethyl-1-pyrazolyl)-1-propynyl]-4-pyrimidinyl}-5-methyl-1,4-diazepan-1-yl]-6-amino-3-pyridazinyl}phenol] | 50 to 500 nM | ++ (++=30-70%) | 50 to 500 nM | < 30% |  | 
5 | Cc1c(C(=O)NCC#Cc2nc(N(C)C)cc(N3CCCN(c4cc(-c5ccccc5O)nnc4N)CC3)n2)nn(C)c1C [Compound P-140, N-(3-(4-(4-(3-amino-6-(2-hydroxyphenyl)pyridazin-4-yl)-1,4-diazepan-1-yl)-6-(dimethylamino)pyrimidin-2-yl)prop-2-yn-1-yl)-1,4,5-trimethyl-1H-pyrazole-3-carboxamide] | 500 to 5000 nM | ++ (++=30-70%) | 500 to 5000 nM | 30 to 70% |  | 
6 | Nc1nnc(-c2ccccc2O)cc1N1CC2CCC(C1)N2c1ccnc(C#CCN2CCCCC2)n1 [Compound P-288, 0-(6-amino-5-{8-[2-(3-piperidino-1-propynyl)-4-pyrimidinyl]-3,8-diazabicyclo[3.2.1]oct-3-y1}-3-pyridazinyl)phenol] | 50 to 500 nM | ++ (++=30-70%) | 50 to 500 nM | 30 to 70% |  | 
7 | CNCC#Cc1nccc(N2CCN(c3cc(-c4ccccc4O)nnc3N)CC[C@H]2C)n1 [Compound P-297, 0-{5-[(R)-5-methyl-4-{2-[3-(methylamino)-1-propynyl]-4-pyrimidinyl}-1,4-diazepan-1-yl]-6-amino-3-pyridazinyl} phenol] | 50 to 500 nM | ++ (++=30-70%) | < 50 nM | < 30% |  | 
8 | COCc1cc(N2CCCN(c3cc(-c4ccccc4O)nnc3N)CC2)nc(C#CCNC(=O)c2cc3ncccn3n2)n1 [Compound P-127, N-(3-(4-(4-(3-amino-6-(2-hydroxyphenyl)pyridazin-4-yl)-1,4-diazcpan-1-yl)-6-(methoxymethyl)pyrimidin-2-yl)prop-2-yn-1-yl)pyrazolo[1,5-a]pyrimidine-2-carboxamide] | 50 to 500 nM | ++ (++=30-70%) | 50 to 500 nM | > 70% |  | 
9 | Nc1nnc(-c2ccccc2O)cc1N1CCCN(c2ccnc(C#CCN3CCCC3=O)n2)CC1 [Compound P-372, 1-[3-(4-{4-[3-amino-6-(o-hydroxyphenyl)-4-pyridaziny1]-1,4-diazepan-1-y1}-2-pyrimidinyl)-2-propynyl]-2-pyrrolidinone] | 50 to 500 nM | +++ (+++=>70%) | 50 to 500 nM | 30 to 70% |  | 
10 | Nc1nnc(-c2ccccc2O)cc1N1CCN(c2ccnc(C#CCNC(=O)c3cnn4ccccc34)n2)CC1 [Compound P-65, N-(3-(4-(4-(3-amino-6-(2-hydroxyphenyl)pyridazin-4-yl)piperazin-1-yl)pyrimidin-2-yl)prop-2-yn-1-yl)pyrazolo[1,5-a]pyridine-3-carboxamide] | 50 to 500 nM | ++ (++=30-70%) | 50 to 500 nM | 30 to 70% |  | 
11 | C[C@@H]1CCN(c2cc(-c3ccccc3O)nnc2N)CCN1c1ccc(C#N)c(C#CCn2ccnc2)n1 [Compound P-429, 6-{(R)-4-[3-amino-6-(o-hydroxyphenyl)-4-pyridazinyl]-7-methyl-1,4-diazepan-1-y1}-2-[3-(1-imidazolyl)-1-propynyl]nicotinonitrile] | 50 to 500 nM |  | 50 to 500 nM |  | +++ (+++=>70%) | 30 to 70%
12 | CN(CC#Cc1nccc(N2CCCN(c3cc(-c4ccccc4O)nnc3N)CC2)n1)c1nc2ccccc2o1 [Compound P-107, 2-(6-amino-5-(4-(2-(3-(benzo[d]oxazol-2-yl(methyl)amino)prop-1-yn-1-yl)pyrimidin-4-yl)-1,4-diazepan-1-yl)pyridazin-3-yl)phenol] | < 50 nM | +++ (+++=>70%) | < 50 nM | > 70% |  | 
13 | C[C@H]1CCN(c2cc(-c3ccccc3O)nnc2N)CCN1c1ccc(C#N)c(C#CCN(C)CC(F)(F)F)n1 [Compound P-415, 2-{3-[N-methyl(2,2,2-trifluoroethyl)amino]-1-propynyl}-6-{(S)-4-[3-amino-6-(o-hydroxyphenyl)-4-pyridazinyl]-7-methyl-1,4-diazepan-1-yl}nicotinonitrile] | 50 to 500 nM |  | 50 to 500 nM |  | ++ (++=30-70%) | 30 to 70%
14 | CNCC#Cc1nccc(N2C3CCC2CN(c2cc(-c4ccccc4O)nnc2N)C3)n1 [Compound P-291, 0-[6-amino-5-(8-{2-[3-(methylamino)-1-propynyl]-4-pyrimidinyl}-3,8-diazabicyclo[3.2.1]oct-3-yl)-3-pyridazinyl]phenol] | 50 to 500 nM | ++ (++=30-70%) | 50 to 500 nM | < 30% |  | 
15 | CC(C)(C)OC(=O)NC1CCN(CC#Cc2nccc(N3CCCN(c4cc(-c5ccccc5O)nnc4N)CC3)n2)CC1 [Compound P-142, tert-butyl (1-(3-(4-(4-(3-amino-6-(2-hydroxyphenyl)pyridazin-4-yl)-1,4-diazepan-1-yl)pyrimidin-2-yl)prop-2-yn-1-yl)piperidin-4-yl)carbamate] | 50 to 500 nM | +++ (+++=>70%) | 50 to 500 nM | > 70% |  | 
16 | Cc1nccn1CC#Cc1nccc(N2CCN(c3cc(-c4ccccc4O)nnc3N)CC[C@H]2C)n1 [Compound P-186, o-{5-[(R)-5-methyl-4-{2-[3-(2-methyl-1-imidazolyl)-1-propynyl]-4-pyrimidinyl}-1,4-diazepan-1-yl]-6-amino-3-pyridazinyl}phenol] | 50 to 500 nM | +++ (+++=>70%) | 50 to 500 nM | 30 to 70% |  | 
17 | C[C@@H]1CCN(c2cc(-c3ccccc3O)nnc2N)CCN1c1ccnc(C#CCN2CC3CC2C3)c1 [Compound P-392, 0-{5-[(R)-4-(2-{3-(2-azabicyclo[2.1.1]hex-2-yl)-1-propynyl}-4-pyridyl)-5-methyl-1,4-diazepan-1-yl]-6-amino-3-pyridazinyl}phenol] | 50 to 500 nM |  | 50 to 500 nM |  | +++ (+++=>70%) | > 70%
18 | Nc1nnc(-c2ccccc2O)cc1N1CCCN(c2ccnc(C#CCN3CCCC(O)C3)n2)CC1 (stereo not shown) [Compound P-361, 1-[3-(4-{4-[3-amino-6-(o-hydroxyphenyl)-4-pyridazinyl]-1,4-diazepan-1-yl}-2-pyrimidinyl)-2-propynyl]-3-piperidinol] | 500 to 5000 nM | ++ (++=30-70%) | 500 to 5000 nM | < 30% |  | 
19 | Nc1nnc(-c2ccccc2O)cc1N1CCCN(c2ccnc(C#CC3COC3)n2)CC1 [Compound P-347, 0-[6-amino-5-(4-{2-[2-(3-oxetanyl)ethynyl]-4-pyrimidinyl}-1,4-diazepan-1-yl)-3-pyridazinyl]phenol] | 50 to 500 nM | +++ (+++=>70%) | 50 to 500 nM | > 70% |  | 
20 | Cc1cc(C)n2ncc(C(=O)NCC#Cc3nccc(N4CCN(c5cc(-c6ccccc6O)nnc5N)CC4)n3)c2n1 [Compound P-70, N-(3-(4-(4-(3-amino-6-(2-hydroxyphenyl)pyridazin-4-yl)piperazin-1-yl)pyrimidin-2-yl)prop-2-yn-1-yl)-5,7-dimethylpyrazolo[1,5-a]pyrimidine-3-carboxamide] | 50 to 500 nM | ++ (++=30-70%) | 50 to 500 nM | 30 to 70% |  | 
21 | C[C@H](O)C#Cc1nccc(N2CCCN(c3cc(-c4ccccc4O)nnc3N)CC2)n1 [Compound P-321, 0-[5-(4-{2-[(S)-3-hydroxy-1-butynyl]-4-pyrimidinyl}-1,4-diazepan-1-yl)-6-amino-3-pyridazinyl]phenol] | 50 to 500 nM | ++ (++=30-70%) | 50 to 500 nM | 30 to 70% |  | 
22 | Nc1nnc(-c2ccccc2O)cc1N1CCCN(c2ccnc(C#CCNC3CC3)n2)CC1 [Compound P-301, 0-[6-amino-5-(4-{2-[3-(cyclopropylamino)-1-propynyl]-4-pyrimidinyl}-1,4-diazepan-1-yl)-3-pyridazinyl]phenol] | 50 to 500 nM | ++ (++=30-70%) | 500 to 5000 nM | 30 to 70% |  | 
